# According to ChEMBL document CHEMBL5614392, “Discovery of novel N2-indazole derivatives as phosphodiesterase 4 inhibitors for the treatment of inflammatory bowel disease” (Eur J Med Chem, 2024):
# pIC50: −log10 of the molar value. Calls of active or inactive are those of the source. No cut-off for these calls is given here.
# Assays:
# [1] = biological target: T1, 3',5'-cyclic-AMP phosphodiesterase 4D (Homo sapiens, UniProt Q08499); assay: Inhibition of PDE4D7 (unknown origin) using FAM-cyclic-3'5'-AMP as substrate at 100 nM incubated for 1 hrs by fluorescence polarization assay relative to control
# T1 sequence (Q08499 whole entry): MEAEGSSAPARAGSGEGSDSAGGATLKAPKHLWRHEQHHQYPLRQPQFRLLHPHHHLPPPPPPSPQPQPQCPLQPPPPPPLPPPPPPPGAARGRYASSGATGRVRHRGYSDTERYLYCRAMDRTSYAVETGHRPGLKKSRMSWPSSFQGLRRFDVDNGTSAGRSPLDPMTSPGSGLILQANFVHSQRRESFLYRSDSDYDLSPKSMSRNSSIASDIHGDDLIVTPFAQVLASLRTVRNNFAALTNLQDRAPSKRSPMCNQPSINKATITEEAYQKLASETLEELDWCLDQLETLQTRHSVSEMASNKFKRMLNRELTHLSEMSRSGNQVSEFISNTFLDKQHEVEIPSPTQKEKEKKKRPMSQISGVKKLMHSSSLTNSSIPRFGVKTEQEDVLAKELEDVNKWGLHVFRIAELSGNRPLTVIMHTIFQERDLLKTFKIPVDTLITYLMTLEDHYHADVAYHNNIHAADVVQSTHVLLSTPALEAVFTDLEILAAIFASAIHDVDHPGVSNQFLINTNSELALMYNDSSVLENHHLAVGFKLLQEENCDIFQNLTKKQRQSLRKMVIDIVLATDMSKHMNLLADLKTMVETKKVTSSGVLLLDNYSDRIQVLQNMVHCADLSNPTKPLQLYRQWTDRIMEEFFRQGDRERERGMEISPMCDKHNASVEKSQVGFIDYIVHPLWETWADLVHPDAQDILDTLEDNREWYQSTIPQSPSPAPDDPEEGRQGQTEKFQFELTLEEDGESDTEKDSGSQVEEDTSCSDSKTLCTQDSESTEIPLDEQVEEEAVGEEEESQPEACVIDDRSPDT
# [2] = biological target: T1, 3',5'-cyclic-AMP phosphodiesterase 4D; assay: Inhibition of PDE4D7 (unknown origin) using FAM-cyclic-3'5'-AMP as substrate at 10 nM incubated for 1 hrs by fluorescence polarization assay relative to control
# [3] = biological target: 3',5'-cyclic-AMP phosphodiesterase 4B (Homo sapiens, UniProt Q07343); assay: Inhibition of recombinant human PDE4B catalytic domain extracted from baculovirus infected Sf9 cells using […] preincubated for 20 mins followed by 2 mins incubation at 65 degreeC and measured 10 mins after substrate addition by scintillation counter
# Chain of 3',5'-cyclic-AMP phosphodiesterase 4B (Q07343 whole entry, the tested form may be a part): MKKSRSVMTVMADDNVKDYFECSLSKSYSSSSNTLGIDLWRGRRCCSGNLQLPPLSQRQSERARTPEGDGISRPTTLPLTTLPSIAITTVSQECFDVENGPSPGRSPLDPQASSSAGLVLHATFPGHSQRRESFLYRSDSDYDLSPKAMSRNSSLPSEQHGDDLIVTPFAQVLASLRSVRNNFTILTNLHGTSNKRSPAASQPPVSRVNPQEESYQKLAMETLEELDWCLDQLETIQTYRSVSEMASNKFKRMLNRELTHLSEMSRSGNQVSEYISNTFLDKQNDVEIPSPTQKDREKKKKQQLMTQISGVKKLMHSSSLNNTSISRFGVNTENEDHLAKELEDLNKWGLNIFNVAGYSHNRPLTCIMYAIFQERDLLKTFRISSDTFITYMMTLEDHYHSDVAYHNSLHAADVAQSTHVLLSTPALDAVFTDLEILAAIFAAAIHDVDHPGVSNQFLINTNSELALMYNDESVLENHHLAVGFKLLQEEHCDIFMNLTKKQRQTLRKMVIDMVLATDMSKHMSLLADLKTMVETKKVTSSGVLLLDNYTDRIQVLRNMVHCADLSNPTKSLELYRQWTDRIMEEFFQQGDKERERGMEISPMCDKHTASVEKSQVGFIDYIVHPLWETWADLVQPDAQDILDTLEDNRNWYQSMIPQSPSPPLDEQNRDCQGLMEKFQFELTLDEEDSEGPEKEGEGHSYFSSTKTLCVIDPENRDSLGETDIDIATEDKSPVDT
# [4] = Toxicity in ketamine/xylazine-induced anesthetic male C57BL/6J mouse model assessed as emetogenic potential by measuring reduction in anesthesia duration at 0.5 mg/kg, po preadministered with compound for 15 mins followed by ketamine/xylazine administration; type: organism-based; conditions: in vivo, 0.25 h
# [5] = test system: RAW264.7; assay: Antiinflammatory activity against mouse RAW264.7 cells assessed as inhibition of LPS-induced IL-6 mRNA production at 10 uM incubated for 24 hrs by SYBR green quantitative PCR analysis; type: functional, cell-based
# [6] = test system: Mus musculus; assay: Antiinflammatory activity against DSS-induced colitis C57BL/6J mouse model assessed as decrease in disease activity index at 3 mg/kg, po pretreated with DSS for 10 days followed by twice daily compound administration for 8 days starting from day 3 to day 10 relative to control; type: functional, organism-based; conditions: time 8.0 day
# [7] = test system: Mus musculus; assay: Antiinflammatory activity against DSS-induced colitis C57BL/6J mouse model assessed as decrease in body weight loss at 3 mg/kg, po pretreated with DSS for 10 days followed by twice daily compound administration for 8 days starting from day 3 to day 10 and measured on day 6; type: functional, organism-based; conditions: time 4.0 day
# [8] = test system: Mus musculus; assay: Antiinflammatory activity against DSS-induced colitis C57BL/6J mouse model assessed as decrease in body weight loss at 3 mg/kg, po pretreated with DSS for 10 days followed by twice daily compound administration for 8 days starting from day 3 to day 10 relative to control; type: functional; set-up: scale not given: the % may be the effect or the level left; conditions: time 8 day
# [9] = test system: Mus musculus; assay: Antiinflammatory activity against DSS-induced colitis C57BL/6J mouse model assessed as increase in colon length at 3 mg/kg, po pretreated with DSS for 10 days followed by twice daily compound administration for 8 days starting from day 3 to day 10; type: functional, organism-based; conditions: time 8.0 day
# [10] = test system: RAW264.7; assay: Antiinflammatory activity against mouse RAW264.7 cells assessed as inhibition of LPS-induced iNOS mRNA production at 10 uM incubated for 24 hrs by SYBR green quantitative PCR analysis; type: functional, cell-based
# [11] = test system: RAW264.7; assay: Antiinflammatory activity against mouse RAW264.7 cells assessed as inhibition of LPS-induced TNF-alpha mRNA production at 10 uM incubated for 24 hrs by SYBR green quantitative PCR analysis; type: functional, cell-based
# [12] = biological target: T1, 3',5'-cyclic-AMP phosphodiesterase 4D; assay: Inhibition of PDE4D7 (unknown origin) using FAM-cyclic-3'5'-AMP as substrate incubated for 1 hrs by fluorescence polarization assay
# [13] = biological target: T1, 3',5'-cyclic-AMP phosphodiesterase 4D; assay: Potency index, ratio of TPA16 IC50 to test compound IC50 for inhibition of PDE4D7 (unknown origin) using FAM-cyclic-3'5'-AMP as substrate incubated for 1 hrs by fluorescence polarization assay
# [14] = biological target: T1, 3',5'-cyclic-AMP phosphodiesterase 4D; assay: Inhibition of PDE4D7 (unknown origin) using FAM-cyclic-3'5'-AMP as substrate at 1 uM incubated for 1 hrs by fluorescence polarization assay relative to control
# [15] = Selectivity ratio of IC50 for PDE3B (unknown origin) to IC50 for PDE4D7 (unknown origin)
# [16] = test system: HT-22; assay: Cytotoxicity against mouse HT-22 cells at 10 to 30 uM; type: toxicity, cell-based; conditions: ht-22, 30 µM, dose 10-30 µM
# [17] = Selectivity ratio of IC50 for PDE7A (unknown origin) to IC50 for PDE4D7 (unknown origin)
# [18] = biological target: High affinity cGMP-specific 3',5'-cyclic phosphodiesterase 9A (Homo sapiens) (UniProt O76083); assay: Inhibition of PDE9A (unknown origin) using FAM-cyclic-3'5'-AMP as substrate at 10 uM incubated for 1 hrs by fluorescence polarization assay relative to control
# Chain of High affinity cGMP-specific 3',5'-cyclic phosphodiesterase 9A (Homo sapiens) (O76083 whole entry): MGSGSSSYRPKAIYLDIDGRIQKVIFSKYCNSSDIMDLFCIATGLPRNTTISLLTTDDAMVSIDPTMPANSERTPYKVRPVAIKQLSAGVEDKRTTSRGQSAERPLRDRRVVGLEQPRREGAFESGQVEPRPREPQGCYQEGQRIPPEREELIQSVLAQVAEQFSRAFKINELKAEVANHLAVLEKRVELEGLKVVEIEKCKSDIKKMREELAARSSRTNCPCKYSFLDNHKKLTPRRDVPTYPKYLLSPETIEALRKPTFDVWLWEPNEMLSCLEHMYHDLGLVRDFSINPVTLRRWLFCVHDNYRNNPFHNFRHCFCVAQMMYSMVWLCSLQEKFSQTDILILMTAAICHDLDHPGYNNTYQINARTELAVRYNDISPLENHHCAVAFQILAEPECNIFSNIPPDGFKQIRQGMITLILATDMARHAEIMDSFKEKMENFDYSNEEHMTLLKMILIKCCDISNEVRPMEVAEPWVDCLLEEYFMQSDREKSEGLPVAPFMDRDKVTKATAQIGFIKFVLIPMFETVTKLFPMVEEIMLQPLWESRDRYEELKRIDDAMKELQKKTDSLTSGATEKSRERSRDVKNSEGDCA
# [19] = biological target: cGMP-inhibited 3',5'-cyclic phosphodiesterase 3B (Homo sapiens) (UniProt Q13370); assay: Inhibition of PDE3B (unknown origin) using FAM-cyclic-3'5'-AMP as substrate at 10 uM incubated for 1 hrs by fluorescence polarization assay relative to control
# Chain of cGMP-inhibited 3',5'-cyclic phosphodiesterase 3B (Homo sapiens) (Q13370 whole entry, looked up): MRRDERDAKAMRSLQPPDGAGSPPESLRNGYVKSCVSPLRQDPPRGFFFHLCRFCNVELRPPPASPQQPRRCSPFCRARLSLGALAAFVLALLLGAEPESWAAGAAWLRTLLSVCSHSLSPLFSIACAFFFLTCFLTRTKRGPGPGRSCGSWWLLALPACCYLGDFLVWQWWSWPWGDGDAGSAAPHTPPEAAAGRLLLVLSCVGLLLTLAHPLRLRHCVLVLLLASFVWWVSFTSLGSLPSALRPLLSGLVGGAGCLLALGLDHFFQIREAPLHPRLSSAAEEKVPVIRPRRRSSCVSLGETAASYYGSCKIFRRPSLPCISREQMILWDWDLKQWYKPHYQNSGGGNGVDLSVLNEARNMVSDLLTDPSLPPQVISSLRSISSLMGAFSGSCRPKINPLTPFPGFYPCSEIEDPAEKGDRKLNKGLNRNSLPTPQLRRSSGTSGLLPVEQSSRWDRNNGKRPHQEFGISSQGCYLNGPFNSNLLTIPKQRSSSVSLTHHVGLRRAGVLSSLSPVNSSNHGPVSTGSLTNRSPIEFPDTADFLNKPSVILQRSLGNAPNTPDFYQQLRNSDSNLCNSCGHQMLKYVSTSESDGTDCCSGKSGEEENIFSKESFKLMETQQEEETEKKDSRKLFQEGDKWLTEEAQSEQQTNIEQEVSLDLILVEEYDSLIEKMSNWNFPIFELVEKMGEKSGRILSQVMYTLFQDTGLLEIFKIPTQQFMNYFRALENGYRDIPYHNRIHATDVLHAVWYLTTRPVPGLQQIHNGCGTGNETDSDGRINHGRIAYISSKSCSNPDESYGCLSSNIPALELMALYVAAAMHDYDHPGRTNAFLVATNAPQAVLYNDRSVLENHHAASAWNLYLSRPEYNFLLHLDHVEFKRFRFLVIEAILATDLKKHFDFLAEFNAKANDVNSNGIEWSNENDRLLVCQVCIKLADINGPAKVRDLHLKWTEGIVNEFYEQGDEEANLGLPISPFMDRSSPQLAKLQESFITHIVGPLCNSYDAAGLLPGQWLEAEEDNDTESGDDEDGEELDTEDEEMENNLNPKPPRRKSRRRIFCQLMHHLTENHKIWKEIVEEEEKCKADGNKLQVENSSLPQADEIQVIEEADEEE
# [20] = Selectivity ratio of IC50 for PDE9A (unknown origin) to IC50 for PDE4D7 (unknown origin)
# [21] = biological target: High affinity cAMP-specific and IBMX-insensitive 3',5'-cyclic phosphodiesterase 8A (Homo sapiens) (UniProt O60658); assay: Inhibition of PDE8A (unknown origin) using FAM-cyclic-3'5'-AMP as substrate at 10 uM incubated for 1 hrs by fluorescence polarization assay relative to control
# Chain of High affinity cAMP-specific and IBMX-insensitive 3',5'-cyclic phosphodiesterase 8A (Homo sapiens) (O60658 whole entry): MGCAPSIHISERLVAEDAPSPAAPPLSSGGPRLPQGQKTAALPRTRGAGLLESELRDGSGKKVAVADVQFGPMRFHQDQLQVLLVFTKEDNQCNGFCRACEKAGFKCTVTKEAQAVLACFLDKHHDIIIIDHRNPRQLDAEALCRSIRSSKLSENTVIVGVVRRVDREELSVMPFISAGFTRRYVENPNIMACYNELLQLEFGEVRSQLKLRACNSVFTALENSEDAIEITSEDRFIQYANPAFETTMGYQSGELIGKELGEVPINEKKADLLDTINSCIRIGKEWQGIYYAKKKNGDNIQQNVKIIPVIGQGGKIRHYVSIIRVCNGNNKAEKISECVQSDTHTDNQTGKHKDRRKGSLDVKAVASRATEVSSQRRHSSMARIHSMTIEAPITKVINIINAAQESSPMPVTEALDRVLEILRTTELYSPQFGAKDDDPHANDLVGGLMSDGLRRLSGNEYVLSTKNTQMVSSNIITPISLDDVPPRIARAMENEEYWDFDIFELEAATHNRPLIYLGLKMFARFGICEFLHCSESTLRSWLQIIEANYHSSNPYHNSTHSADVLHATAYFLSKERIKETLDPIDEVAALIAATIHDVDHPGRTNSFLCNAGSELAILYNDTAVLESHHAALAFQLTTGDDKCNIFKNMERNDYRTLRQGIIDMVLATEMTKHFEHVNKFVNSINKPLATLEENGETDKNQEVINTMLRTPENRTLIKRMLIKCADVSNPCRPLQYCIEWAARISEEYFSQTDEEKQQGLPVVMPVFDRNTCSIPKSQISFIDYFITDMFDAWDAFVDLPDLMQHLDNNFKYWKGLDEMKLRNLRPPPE
# [22] = biological target: High affinity 3',5'-cyclic-AMP phosphodiesterase 7A (Homo sapiens) (UniProt Q13946); assay: Inhibition of PDE7A (unknown origin) using FAM-cyclic-3'5'-AMP as substrate at 10 uM incubated for 1 hrs by fluorescence polarization assay relative to control
# Chain of High affinity 3',5'-cyclic-AMP phosphodiesterase 7A (Homo sapiens) (Q13946 whole entry): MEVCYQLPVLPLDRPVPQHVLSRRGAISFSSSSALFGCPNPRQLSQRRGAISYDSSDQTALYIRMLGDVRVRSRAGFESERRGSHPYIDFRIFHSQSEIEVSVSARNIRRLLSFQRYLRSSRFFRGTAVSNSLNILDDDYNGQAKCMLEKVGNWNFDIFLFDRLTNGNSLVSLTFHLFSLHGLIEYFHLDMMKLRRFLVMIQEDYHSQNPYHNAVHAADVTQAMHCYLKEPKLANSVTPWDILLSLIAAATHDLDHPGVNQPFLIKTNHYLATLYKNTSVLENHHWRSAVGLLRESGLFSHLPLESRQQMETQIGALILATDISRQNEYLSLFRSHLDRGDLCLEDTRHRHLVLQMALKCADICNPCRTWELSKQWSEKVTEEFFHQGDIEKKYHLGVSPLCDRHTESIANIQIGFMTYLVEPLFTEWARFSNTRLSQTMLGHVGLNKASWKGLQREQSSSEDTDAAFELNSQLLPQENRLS
# [23] = Acute toxicity in male C57BL/6J mouse assessed as animal death at 0.1 g/Kg, po measured within 10 to 24 hrs; type: organism-based; conditions: in vivo, 100 mg/kg, time 10-24 hrs
# [24] = Selectivity ratio of IC50 for PDE8A (unknown origin) to IC50 for PDE4D7 (unknown origin)
# [25] = biological target: Phosphodiesterase 7 (Homo sapiens, UniProt Q13946+Q9NP56); assay: Inhibition of PDE7 (unknown origin); type: protein assay
# [26] = biological target: Phosphodiesterase 4 (Homo sapiens, UniProt P27815+Q08499+Q07343+Q08493); assay: Inhibition of PDE4 (unknown origin); type: protein assay
# [27] = biological target: T1, 3',5'-cyclic-AMP phosphodiesterase 4D; assay: Inhibition of human recombinant PDE4D using radioactively labelled cAMP and cAMP as substrate incubated for 1 hrs by luminescence based analysis
# [28] = Oral bioavailability in male C57BL/6J mouse; type: ADME, organism-based; conditions: in vivo
# [29] = Acute toxicity in po dosed male C57BL/6J mouse assessed as lethal dose measured after 14 days; type: organism-based; conditions: in vivo, time 14 day
# [30] = Toxicity in ketamine/xylazine-induced anesthetic male C57BL/6J mouse model assessed as emetogenic potential by measuring reduction in anesthesia duration at 5 to 10 mg/kg, po preadministered with compound for 15 mins followed by ketamine/xylazine administration; type: organism-based; conditions: in vivo, 0.25 h, dose 5-10 mg/kg
structure (smiles),measurement,setting,value
COc1ccc(-c2cccc(C#N)c2)c2cn(C3CC3)nc12,inhibition,[1],6%
same,inhibition,[2],5%
COc1ccc(-c2ccc3[nH]c(=O)ccc3c2)n2cc(C(F)(F)F)nc12,pIC50,[3],> 7.00
COc1ccc(C2CNC(=O)C2)cc1OC1CCCC1 (stereo unspecified) [ROLIPRAM],Activity,[4],Toxic
COc1cc(OC)cc(-c2ccc(OC(F)F)c3nn(C4CC4)cc23)c1,inhibition,[1],4%
O=C(Nc1c(Cl)cncc1Cl)c1ccc(OC(F)F)c(OCC2CC2)c1 [ROFLUMILAST],Activity,[5],Active
same,Activity,[6],Active
same,Activity,[7],Active
same,Activity,[8],7.3%
same,Activity,[9],Active
same,Activity,[10],Active
same,Activity,[4],Toxic
same,Activity,[11],Active
FC(F)Oc1ccc(-c2ccnc(N3CCOCC3)c2)c2cn(C3CC3)nc12,inhibition,[1],11%
same,inhibition,[2],3%
FC(F)Oc1ccc(-c2ccnc(Cl)c2)c2cn(C3CC3)nc12,inhibition,[1],79%
same,inhibition,[2],28%
same,pIC50,[12],7.65
O=C(NCc1ccccc1)c1cc(-c2ccc(OC(F)F)c3nn(C4CC4)cc23)ccn1,inhibition,[1],16%
same,inhibition,[2],8%
CNc1cc(-c2ccc(OC(F)F)c3nn(C4CC4)cc23)ccn1,inhibition,[1],18%
same,inhibition,[2],4%
FC(F)Oc1ccc(-c2ccncc2Cl)c2cn(C3CC3)nc12,inhibition,[1],14%
same,inhibition,[2],6%
CC(C)CNC(=O)c1cc(-c2ccc(OC(F)F)c3nn(C4CC4)cc23)ccn1,inhibition,[1],14%
same,inhibition,[2],5%
COc1cc(-c2ccc(OC)c3nn(C4CC4)cc23)cc(OC)c1OC,inhibition,[1],73%
same,Ratio IC50,[13],> 20
same,inhibition,[2],34%
same,pIC50,[12],7.56
COc1ccc(-n2ccc3cc(C#N)ccc32)c2cn(C3CC3)nc12,inhibition,[1],16%
same,inhibition,[2],18%
COc1ccc(-c2cccc(C#N)c2)c2cn(C3(C(=O)NCC(C)C)CC3)nc12,inhibition,[14],81%
same,inhibition,[1],18%
same,pIC50,[12],6.42
CCOc1cc([C@@H](CS(C)(=O)=O)N2C(=O)c3cccc(NC(C)=O)c3C2=O)ccc1OC,Activity,[4],Toxic
COc1cc(-c2ccc(OC(F)F)c3nn(C4CC4)cc23)cc2c1OCO2,inhibition,[1],24%
COc1ccc(-c2cccc(C(C)=O)c2)c2cn(C3CC3)nc12,inhibition,[1],68%
same,inhibition,[2],37%
same,pIC50,[12],7.64
FC(F)Oc1ccc(-c2ccncc2)c2cn(C3CC3)nc12,Ratio IC50,[15],> 502
same,inhibition,[1],77%
same,Activity,[16],Non-Toxic
same,Ratio IC50,[17],> 502
same,inhibition,[18],4%
same,inhibition,[19],8%
same,Ratio IC50,[20],> 502
same,inhibition,[21],5%
same,inhibition,[22],13%
same,inhibition,[2],34%
same,Activity,[23],Toxic
same,pIC50,[12],7.70
same,Ratio IC50,[24],> 502
NC(=O)c1cccnc1Oc1cc(-c2ccc(OC(F)F)c3nn(C4CC4)cc23)cc2c1OCO2,inhibition,[1],22%
COc1ccc(-c2cccc(C(N)=O)c2)c2cn(C3CC3)nc12,inhibition,[1],68%
same,inhibition,[2],26%
same,pIC50,[12],7.42
CC(C)(O)C1CN(c2ccc(OC(F)F)c3nn(C4CC4)cc23)C1,inhibition,[1],4%
same,inhibition,[2],4%
COc1ccc(-c2cccc(C(C)=O)c2)c2cn(C3(C(=O)NC4CCCC4)CC3)nc12,inhibition,[14],4%
same,inhibition,[1],8%
same,pIC50,[12],< 6.00
COc1ccc(-c2cccc(C(C)=O)c2)c2cn(C3(C(=O)NCC(C)C)CC3)nc12,inhibition,[14],7%
same,inhibition,[1],4%
same,pIC50,[12],< 6.00
COc1ccc(-c2ccc(OC)c3nn(C4CC4)cc23)cc1OC,inhibition,[1],4%
same,inhibition,[2],3%
same,inhibition,[12],inactive
COc1ccc(N2CC(Oc3ccccc3)C2)c2cn(C3CC3)nc12,inhibition,[1],9%
same,inhibition,[2],7%
OCCN(CCO)c1nc(N2CCCCC2)c2nc(N(CCO)CCO)nc(N3CCCCC3)c2n1 [DIPYRIDAMOLE],IC50,[25],600 nM
same,IC50,[26],2800 nM
FC(F)Oc1ccc(N2CCOCC2)c2cn(C3CC3)nc12,inhibition,[1],12%
same,inhibition,[2],4%
COc1ccc(-c2cc(C#N)cc(Cc3ccccc3)c2)c2cn(C3CC3)nc12,inhibition,[1],3%
same,inhibition,[2],3%
COc1cc(-c2ccc(OC(F)F)c3nn(C4CC4)cc23)ccn1,inhibition,[1],21%
same,inhibition,[2],7%
COc1ccc(-c2cccc(C(C)=O)c2)n2nc(C3(C(=O)NC4CCCC4)CC3)nc12,pIC50,[27],> 6.30
CC(=O)c1cccc(-c2ccc(OC(F)F)c3nn(C4CC4)cc23)c1,inhibition,[1],88%
same,Activity,[16],Toxic
same,inhibition,[2],38%
same,pIC50,[12],7.87
COc1ccc(-c2cccc(CN)c2)c2cn(C3CC3)nc12,inhibition,[1],71%
same,inhibition,[2],32%
same,pIC50,[12],7.48
Fc1cnccc1-c1ccc(OC(F)F)c2nn(C3CC3)cc12,inhibition,[1],15%
same,inhibition,[2],3%
COc1ccc(-c2ccncc2)c2cn(C3CC3)nc12,Ratio IC50,[15],> 990
same,inhibition,[1],89%
same,Activity,[16],Non-Toxic
same,Ratio IC50,[17],> 990
same,inhibition,[18],7%
same,inhibition,[19],11%
same,Ratio IC50,[20],> 990
same,bioavailability,[28],3.4%
same,inhibition,[21],10%
same,LD50 at 336 h,[29],400 mg/kg
same,Activity,[30],Non-Toxic
same,inhibition,[22],13%
same,inhibition,[2],46%
same,pIC50,[12],8.00
same,Ratio IC50,[24],> 990
N#Cc1cccnc1Oc1cc(-c2ccc(OC(F)F)c3nn(C4CC4)cc23)cc2c1OCO2,inhibition,[1],2%
Fc1cc(-c2ccc(OC(F)F)c3nn(C4CC4)cc23)ccn1,inhibition,[1],38%
same,inhibition,[2],12%
